Reference: PMC8053192, “Engineering of a borneol dehydrogenase from P. putida for the enzymatic resolution of camphor” (Applied Microbiology and Biotechnology, 2021)

System: T1, glucose dehydrogenase (GDH) from Pseudomonas sp.
T1 construct: commercial enzyme, Sigma-Aldrich (UK)
Test: steady-state kinetics, Michaelis-Menten fit
Format: biochemical
Details: pH 5.0, 30 °C; NAD+ as co-substrate; read-out: apparent Km

With `OC[C@H]1OC(O)[C@H](O)[C@@H](O)[C@@H]1O` (stereo partly shown) [glucose] the Km was 3.6 ± 0.35 mM.
